Results from article PMC10447463, “Data-mining unveils structure–property–activity correlation of viral infectivity enhancing self-assembling peptides” (Nature Communications, 2023).
Like-named read-outs stand apart in the source and are kept apart here.

Key:
[1] = Turbidity, derived count rate of scattered light; type: physicochemical; conditions: for Count Rate: derived count rate of scattered light (turbidity); for Log10 Count Rate: turbidity, derived count rate of scattered light, data of Figure 2D
[2] = Conversion rate (CR) assay with fluorescamine; type: physicochemical; set-up: key to CR: % = 100−100×filtrate/original fluorescence intensity
How it was run: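 1 mg/mL PNF solutions lyophilized and powders measured by diamond ATR FT-IR (2 cm^-1 resolution, 64 scans); β-sheet content calculated per a prior method. For CR, PNF solution centrifuged through 3 kDa MWCO filter (16200 x g, 4 °C, 45 min); filtrate and unfiltered sample lyophilized, dissolved in DMSO, reacted with fluorescamine.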

[3] = type: physicochemical; conditions: for ThT Cat. / ThT-Fluorescence (categorical): ThT-active if fluorescence at least twice the control
How it was run: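 Preformed peptide fibrils (1 mg/mL) mixed with 50 µM ThT in PBS, 15 min at RT, fluorescence ex 440/em 488 nm versus PBS blank, triplicates. Zeta potential: peptides at 1 mg/mL in PBS pH 7.4, aged 1 d at RT, diluted in 1 mM KCl, Smoluchowski from electrophoretic mobility.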

[4] = type: physicochemical; set-up: key to Fibril / Fibril Formation / TEM 2cat / Fibril: 1 = fibrils present; 0 non-fibrillar structures; conditions: for Fibril / Fibril Formation: 1 mg/mL, uranyl acetate stain, qualitative
[5] = Fig. S7 panel B, conversion rate, fluorescamine assay
[6] = conversion rate, fluorescamine assay
[7] = ThT fluorescence category, 1 if Rel. ThT >2
[8] = FigS12 panel A, fibril category by TEM
[9] = TEM, 1 = fibrils present, 0 = non-fibrillar
[10] = TEM, 1 = fibrils present, 0 = non-fibrillar structures
[11] = category: fibrils present or non-fibrillar

Row | Substance | Count Rate [1] | Log10 Count Rate [1] | CR / % [2, 5] | CR [2, 6] | Tht category (> 2 to blank = +) ([3]; Fig S10 panel D) | ThT Cat. ([3]; Fig S10 panel E) | Tht category (> 2 to blank = +) ([3]; FigS12 panel A) | ThT Cat, ([3]; FigS12 panel B) | ThT Cat, ([3]; ThT category, 1 if Rel. ThT >2) | ThT Cat. / ThT-Fluorescence (categorical) [3] | TEM 2cat ([4]; Fig S10 panel D) | Fibril ([4]; Fig S10 panel E) | TEM 2cat [4, 8] | Fibril ([4]; FigS12 panel B, TEM) | Fibril / Fibril Formation ([4]; TEM) | Fibril [4, 9] | Fibril [4, 10] | ThT Cat. ([3]; ThT category, 1 if Rel. ThT >2) | TEM 2cat [4, 11] | further results
1 | KIKIQI | 108.3 | 2.035 | 18.9% | 18.91 | 0 (ThT-inactive (N-Fold <2)) | 0 (ThT-inactive (N-Fold <2)) | 0 (ThT-inactive (N-Fold <2)) | 0 (ThT-inactive (N-Fold <2)) | 0 (ThT-inactive (N-Fold <2)) | 0 (ThT-inactive (N-Fold <2)) | 0 | 0 | 0 | 0 | 0 | 0 | 0 | – | – | ThT Cat. [3, 7]: 0 (ThT-inactive (N-Fold <2))
2 | CEIEIQI | 51.97 | 1.716 | 59% | 59 | 1 (ThT. Cat is 1, if Rel. ThT >2) | 1 (ThT. Cat is 1, if Rel. ThT >2) | 1 (ThT. Cat is 1, if Rel. ThT >2) | 1 (ThT. Cat is 1, if Rel. ThT >2) | 1 (ThT. Cat is 1, if Rel. ThT >2) | 1 (ThT. Cat is 1, if Rel. ThT >2) | 1 | 1 | 1 | 1 | 1 | 1 | 1 | 1 (ThT. Cat is 1, if Rel. ThT >2) | – | –
3 | QCKIKIQINMWQ | 8271 | 3.918 | 93.7% | 93.68 | 1 (ThT. Cat is 1, if Rel. ThT >2) | 1 (ThT. Cat is 1, if Rel. ThT >2) | – | – | 1 (ThT. Cat is 1, if Rel. ThT >2) | 1 (ThT. Cat is 1, if Rel. ThT >2) | 1 | 1 | – | – | 1 | 1 | 1 | 1 (ThT. Cat is 1, if Rel. ThT >2) | 1 | –
4 | HGDKCHGDKC | 12.43 | 1.095 | 37.4% | 37.3627 | 0 (ThT-inactive (N-Fold <2)) | 0 (ThT-inactive (N-Fold <2)) | 0 (ThT-inactive (N-Fold <2)) | 0 (ThT-inactive (N-Fold <2)) | 0 (ThT-inactive (N-Fold <2)) | 0 (ThT-inactive (N-Fold <2)) | 0 | 0 | 0 | 0 | 0 | 0 | 0 | 0 (ThT-inactive (N-Fold <2)) | – | –
5 | KAKAQA | 20.93 | 1.321 | 0.3% | 0.3138 | 0 (ThT-inactive (N-Fold <2)) | 0 (ThT-inactive (N-Fold <2)) | 0 (ThT-inactive (N-Fold <2)) | 0 (ThT-inactive (N-Fold <2)) | 0 (ThT-inactive (N-Fold <2)) | 0 (ThT-inactive (N-Fold <2)) | 0 | 0 | 0 | 0 | 0 | 0 | 0 | – | – | ThT Cat. [3, 7]: 0 (ThT-inactive (N-Fold <2))
6 | HGEHGEHGE | 340.4 | 2.532 | 42.9% | 42.88 | 0 (ThT-inactive (N-Fold <2)) | 0 (ThT-inactive (N-Fold <2)) | 0 (ThT-inactive (N-Fold <2)) | 0 (ThT-inactive (N-Fold <2)) | 0 (ThT-inactive (N-Fold <2)) | 0 (ThT-inactive (N-Fold <2)) | 0 | 0 | 0 | 0 | 0 | 0 | 0 | 0 (ThT-inactive (N-Fold <2)) | – | –
7 | CETMYDKILKNLSRSR | 1099 | 3.041 | 98.9% | 98.89 | 0 (ThT-inactive (N-Fold <2)) | 0 (ThT-inactive (N-Fold <2)) | 0 (ThT-inactive (N-Fold <2)) | 0 (ThT-inactive (N-Fold <2)) | 0 (ThT-inactive (N-Fold <2)) | 0 (ThT-inactive (N-Fold <2)) | 0 | 0 | 0 | 0 | 0 | 0 | 0 | 0 (ThT-inactive (N-Fold <2)) | – | –
8 | CKFKFQFNMWQ | 142.5 | 2.154 | 97.5% | 97.52 | 1 (ThT. Cat is 1, if Rel. ThT >2) | 1 (ThT. Cat is 1, if Rel. ThT >2) | – | – | 1 (ThT. Cat is 1, if Rel. ThT >2) | 1 (ThT. Cat is 1, if Rel. ThT >2) | 1 | 1 | – | – | 1 | 1 | 1 | 1 (ThT. Cat is 1, if Rel. ThT >2) | 1 | –
9 | KAKAQANMWQ | 56.17 | 1.749 | 56.2% | 56.24 | 0 (ThT-inactive (N-Fold <2)) | 0 (ThT-inactive (N-Fold <2)) | 0 (ThT-inactive (N-Fold <2)) | 0 (ThT-inactive (N-Fold <2)) | 0 (ThT-inactive (N-Fold <2)) | 0 (ThT-inactive (N-Fold <2)) | 0 | 0 | 0 | 0 | 0 | 0 | 0 | 0 (ThT-inactive (N-Fold <2)) | – | CR / % ([2]; conversion of monomer to nanostructures, 3 kDa MWCO filtration, fluorescamine, ex 365 / em 470 nm, triplicate): 56%; Rel. ThT ([3]; n-fold ThT fluorescence vs control (PBS, 10% DMSO), 4 µL 1 mg/mL fibrils + 20 µL 50 µM ThT, 15 min RT, ex 440 / em 488 nm, triplicate): 1
10 | CHLHLQL | 1155 | 3.062 | 96.6% | 96.58 | 1 (ThT. Cat is 1, if Rel. ThT >2) | 1 (ThT. Cat is 1, if Rel. ThT >2) | 1 (ThT. Cat is 1, if Rel. ThT >2) | 1 (ThT. Cat is 1, if Rel. ThT >2) | 1 (ThT. Cat is 1, if Rel. ThT >2) | 1 (ThT. Cat is 1, if Rel. ThT >2) | 0 | 0 | 0 | 0 | 0 | 0 | 0 | 1 (ThT. Cat is 1, if Rel. ThT >2) | – | –
11 | KFKFQFNMWQ | 734.6 | 2.866 | 96.2% | 96.16 | 1 (ThT. Cat is 1, if Rel. ThT >2) | 1 (ThT. Cat is 1, if Rel. ThT >2) | – | – | 1 (ThT. Cat is 1, if Rel. ThT >2) | 1 (ThT. Cat is 1, if Rel. ThT >2) | 1 | 1 | – | – | 1 | 1 | 1 | 1 (ThT. Cat is 1, if Rel. ThT >2) | 1 | –
12 | HIHIQIC | 260.6 | 2.416 | 82.7% | 82.72 | 1 (ThT. Cat is 1, if Rel. ThT >2) | 1 (ThT. Cat is 1, if Rel. ThT >2) | – | – | 1 (ThT. Cat is 1, if Rel. ThT >2) | 1 (ThT. Cat is 1, if Rel. ThT >2) | 1 | 1 | – | – | 1 | 1 | 1 | 1 (ThT. Cat is 1, if Rel. ThT >2) | 1 | –
13 | CKFKFQF | 5303 | 3.725 | 95.6% | 95.56 | 1 (ThT. Cat is 1, if Rel. ThT >2) | 1 (ThT. Cat is 1, if Rel. ThT >2) | – | – | 1 (ThT. Cat is 1, if Rel. ThT >2) | 1 (ThT. Cat is 1, if Rel. ThT >2) | 1 | 1 | – | – | 1 | 1 | 1 | 1 (ThT. Cat is 1, if Rel. ThT >2) | 1 | –
